pEC50: −log10 of the molar value. Like-named read-outs stand apart in the source and are kept apart here.
Legend:
[1] = tested on: aCD3/aCD28-stimulated human PBMCs; assay: Cytokine production in aCD3/aCD28 stimulated human PBMCs; type: cell-based; conditions: PBMC, 18 h
Method in brief: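 Ficoll-isolated human PBMCs at 1e6 cells/mL in X-Vivo15, stimulated with soluble anti-CD3/CD28 (OKT3 and 28.2, 1 μg/mL each) plus compound for 18 h at 37° C. Supernatant cytokines quantified by MSD or HTRF.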

[2] = tested on: aCD3/aCD28-stimulated human CD4+-T-cells; assay: IL-2 production and activation markers in aCD3/aCD28 stimulated isolated human CD4+-T-cells; type: cell-based; conditions: IL-2 production at 3 μM compound
Method in brief: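 CD4+ T cells isolated from buffy-coat PBMCs by microbeads were plated in Xvivo medium (1.5*10^5 cells/well) and stimulated with anti-CD3/28 mAbs plus compound. IL-2 measured by ELISA in supernatants at 24 h or 48 h; CD25 and proliferation by flow cytometry, CD69 at 24 h. Activity classes based on IL-2 at 3 μM compound.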

[3] = enhancement of IFN-γ production, read-out: Activity Class IFN-γ
[4] = enhancement of IL-2 production, read-out: Activity Class IL-2

Row | Compound | pEC50 [1, 3] | pEC50 [1, 4] | Activity Class CD4+ [2]
1 | Cl.N[C@H]1CSc2ccc(C(=O)NC3CCC(F)(F)CC3)cc2N(Cc2ccc(Cl)cc2)C1=O [Example 33, (3R)-3-amino-5-[(4-chlorophenyl)methyl]-N-(4,4-difluorocyclohexyl)-4-oxo-2,3,4,5-tetrahydro-1,5-benzothiazepine-7-carboxamide hydrochloride] | > 5.80 | 5.30 to 5.80 | B (IL-2 production at 3 μM compound concentration between 2-10 ng/mL)
2 | CC(NC(=O)c1ccc2c(c1)N(Cc1ccc(Cl)cc1)C(=O)[C@@H](N)CS2)c1ccc(F)cc1.Cl (stereo partly drawn) [Example 34, (3R)-3-amino-5-[(4-chlorophenyl)methyl]-N-[1-(4-fluorophenyl)ethyl]-4-oxo-2,3,4,5-tetrahydro-1,5-benzothiazepine-7-carboxamide hydrochloride] | 5.30 to 5.80 | 5.30 to 5.80 | C (IL-2 production at 3 μM compound concentration between 2-fold increase as compared to mean IL-2 production of stimulated cells in the absence of compounds and <2 ng/mL)
3 | COc1ccc([C@H](C)NC(=O)c2ccc3c(c2)N(Cc2ccc(Cl)cc2)C(=O)[C@@H](N)CS3)cc1 [Example 35, (3R)-3-amino-5-[(4-chlorophenyl)methyl]-N-[(1S)-1-(4-methoxyphenyl)ethyl]-4-oxo-2,3,4,5-tetrahydro-1,5-benzothiazepine-7-carboxamide] | < 5.30 | < 5.30 | C (IL-2 production at 3 μM compound concentration between 2-fold increase as compared to mean IL-2 production of stimulated cells in the absence of compounds and <2 ng/mL)
4 | Cl.N[C@H]1CSc2ccc(C(=O)NCCCC(F)(F)F)cc2N(Cc2ccc(C(F)(F)F)nc2)C1=O [Example 36, (3R)-3-amino-4-oxo-N-(4,4,4-trifluorobutyl)-5-{[6-(trifluoromethyl)pyridin-3-yl]methyl}-2,3,4,5-tetrahydro-1,5-benzothiazepine-7-carboxamide hydrochloride] | > 5.80 | < 5.30 | C (IL-2 production at 3 μM compound concentration between 2-fold increase as compared to mean IL-2 production of stimulated cells in the absence of compounds and <2 ng/mL)
5 | Cl.N[C@H]1CSc2ccc(C(=O)NCc3ccc(F)cc3)cc2N(Cc2ccc(C(F)(F)F)nc2)C1=O [Example 37, (3R)-3-amino-N-[(4-fluorophenyl)methyl]-4-oxo-5-{[6-(trifluoromethyl)pyridin-3-yl]methyl}-2,3,4,5-tetrahydro-1,5-benzothiazepine-7-carboxamide hydrochloride] | < 5.30 | 5.30 to 5.80 | C (IL-2 production at 3 μM compound concentration between 2-fold increase as compared to mean IL-2 production of stimulated cells in the absence of compounds and <2 ng/mL)
6 | C[C@@H](NC(=O)c1ccc2c(c1)N(Cc1ccc(Cl)cc1)C(=O)[C@@H](N)CS2)c1ccc(F)cc1.Cl [Example 38, (3R)-3-amino-5-[(4-chlorophenyl)methyl]-N-[(1R)-1-(4-fluorophenyl)ethyl]-4-oxo-2,3,4,5-tetrahydro-1,5-benzothiazepine-7-carboxamide hydrochloride] | 5.30 to 5.80 | 5.30 to 5.80 | C (IL-2 production at 3 μM compound concentration between 2-fold increase as compared to mean IL-2 production of stimulated cells in the absence of compounds and <2 ng/mL)
7 | Cl.N[C@H]1CSc2cc(F)c(C(=O)NCc3ccc(F)cc3)cc2N(Cc2ccc(Cl)cc2)C1=O [Example 39, (3R)-3-amino-5-[(4-chlorophenyl)methyl]-8-fluoro-N-[(4-fluorophenyl)methyl]-4-oxo-2,3,4,5-tetrahydro-1,5-benzothiazepine-7-carboxamide hydrochloride] | > 5.80 | 5.30 to 5.80 | B (IL-2 production at 3 μM compound concentration between 2-10 ng/mL)
8 | CCCCNC(=O)c1cc2c(cc1F)SC[C@H](N)C(=O)N2Cc1ccc(Cl)cc1.Cl [Example 41, (3R)-3-amino-N-butyl-5-[(4-chlorophenyl)methyl]-8-fluoro-4-oxo-2,3,4,5-tetrahydro-1,5-benzothiazepine-7-carboxamide hydrochloride] | > 5.80 | 5.30 to 5.80 | C (IL-2 production at 3 μM compound concentration between 2-fold increase as compared to mean IL-2 production of stimulated cells in the absence of compounds and <2 ng/mL)
9 | Cl.N[C@H]1CSc2cc(F)c(C(=O)NCC3CCOCC3)cc2N(Cc2ccc(Cl)cc2)C1=O [Example 42, (3R)-3-amino-5-[(4-chlorophenyl)methyl]-8-fluoro-N-(oxan-4-ylmethyl)-4-oxo-2,3,4,5-tetrahydro-1,5-benzothiazepine-7-carboxamide hydrochloride] | 5.30 to 5.80 | < 5.30 | C (IL-2 production at 3 μM compound concentration between 2-fold increase as compared to mean IL-2 production of stimulated cells in the absence of compounds and <2 ng/mL)
10 | COc1ccc(CNC(=O)c2cc3c(cc2F)SC[C@H](N)C(=O)N3Cc2ccc(Cl)cc2)cc1.Cl [Example 43, (3R)-3-amino-5-[(4-chlorophenyl)methyl]-8-fluoro-N-[(4-methoxyphenyl)methyl]-4-oxo-2,3,4,5-tetrahydro-1,5-benzothiazepine-7-carboxamide hydrochloride] | > 5.80 | 5.30 to 5.80 | C (IL-2 production at 3 μM compound concentration between 2-fold increase as compared to mean IL-2 production of stimulated cells in the absence of compounds and <2 ng/mL)
11 | Cc1nc(-c2ccc(CN3C(=O)[C@@H](N)CSc4ccc(C(=O)NCC5CCOCC5)cc43)cc2)no1.Cl [Example 44, (3R)-3-amino-5-{[4-(5-methyl-1,2,4-oxadiazol-3-yl)phenyl]methyl}-N-(oxan-4-ylmethyl)-4-oxo-2,3,4,5-tetrahydro-1,5-benzothiazepine-7-carboxamide hydrochloride] | 5.30 to 5.80 | < 5.30 | C (IL-2 production at 3 μM compound concentration between 2-fold increase as compared to mean IL-2 production of stimulated cells in the absence of compounds and <2 ng/mL)
12 | CCCCNC(=O)c1ccc2c(c1)N(Cc1ccc(-n3cncn3)cc1)C(=O)[C@@H](N)CS2.Cl [Example 46, (3R)-3-amino-N-butyl-4-oxo-5-{[4-(1H-1,2,4-triazol-1-yl)phenyl]methyl}-2,3,4,5-tetrahydro-1,5-benzothiazepine-7-carboxamide hydrochloride] | 5.30 to 5.80 | < 5.30 | C (IL-2 production at 3 μM compound concentration between 2-fold increase as compared to mean IL-2 production of stimulated cells in the absence of compounds and <2 ng/mL)
13 | CC(C)(O)CNC(=O)c1ccc2c(c1)N(Cc1ccc(Cl)cc1)C(=O)[C@@H](N)CS2 [Example 48, (3R)-3-amino-5-[(4-chlorophenyl)methyl]-N-(2-hydroxy-2-methylpropyl)-4-oxo-2,3,4,5-tetrahydro-1,5-benzothiazepine-7-carboxamide] | 5.30 to 5.80 | < 5.30 | C (IL-2 production at 3 μM compound concentration between 2-fold increase as compared to mean IL-2 production of stimulated cells in the absence of compounds and <2 ng/mL)
14 | CC(C)(O)CNC(=O)c1cc2c(cc1F)SC[C@H](N)C(=O)N2Cc1ccc(Cl)cc1 [Example 50, (3R)-3-amino-5-[(4-chlorophenyl)methyl]-8-fluoro-N-(2-hydroxy-2-methylpropyl)-4-oxo-2,3,4,5-tetrahydro-1,5-benzothiazepine-7-carboxamide] | 5.30 to 5.80 | < 5.30 | C (IL-2 production at 3 μM compound concentration between 2-fold increase as compared to mean IL-2 production of stimulated cells in the absence of compounds and <2 ng/mL)
15 | C[C@H]1Sc2ccc(C(=O)NCCCC(F)(F)F)cc2N(Cc2ccc(Cl)cc2)C(=O)[C@H]1N.Cl [Example 51, (2R,3R)-3-amino-5-[(4-chlorophenyl)methyl]-2-methyl-4-oxo-N-(4,4,4-trifluorobutyl)-2,3,4,5-tetrahydro-1,5-benzothiazepine-7-carboxamide hydrochloride] | > 5.80 | 5.30 to 5.80 | C (IL-2 production at 3 μM compound concentration between 2-fold increase as compared to mean IL-2 production of stimulated cells in the absence of compounds and <2 ng/mL)
16 | CCCC(=O)NNC(=O)c1ccc2c(c1)N(Cc1ccc(Cl)cc1)C(=O)[C@@H](N)CS2.Cl [Example 53, (3R)-3-amino-N′-butanoyl-5-[(4-chlorophenyl)methyl]-4-oxo-2,3,4,5-tetrahydro-1,5-benzothiazepine-7-carbohydrazide hydrochloride] | < 5.30 | < 5.30 | C (IL-2 production at 3 μM compound concentration between 2-fold increase as compared to mean IL-2 production of stimulated cells in the absence of compounds and <2 ng/mL)
17 | CCCCNC(=O)c1cc2c(cc1F)SC[C@H](N)C(=O)N2Cc1ccc(Cl)cc1F.Cl [Example 54, (3R)-3-amino-N-butyl-5-[(4-chloro-2-fluorophenyl)methyl]-8-fluoro-4-oxo-2,3,4,5-tetrahydro-1,5-benzothiazepine-7-carboxamide hydrochloride] | 5.30 to 5.80 | 5.30 to 5.80 | B (IL-2 production at 3 μM compound concentration between 2-10 ng/mL)
18 | Cl.N[C@H]1CSc2cc(F)c(C(=O)NCC3CCOCC3)cc2N(Cc2ccc(Cl)cc2F)C1=O [Example 55, (3R)-3-amino-5-[(4-chloro-2-fluorophenyl)methyl]-8-fluoro-N-(oxan-4-ylmethyl)-4-oxo-2,3,4,5-tetrahydro-1,5-benzothiazepine-7-carboxamide hydrochloride] | 5.30 to 5.80 | 5.30 to 5.80 | B (IL-2 production at 3 μM compound concentration between 2-10 ng/mL)

Reference: patent publication US10472341B2, “Bicyclic tetrahydrothiazepine derivatives useful for the treatment of neoplastic and/or infectious diseases” (APEIRON BIOLOGICS AG, priority 2015, dated 2019)
